# In patent US10881637B2 (priority 2015, dated 2021):
# Where two headings read alike, the source gives them in different places.
# Key:
# [1] = system: subject with bipolar disorder; test: Salvia divinorum by combustion and inhalation in one subject with bipolar disorder (Example 1); format: in vivo, human; conditions: for mania on traditional antidepressants: same subject, very small, sub-therapeutic doses
# Description: This method was repeated approximately 20 times with consistent results.
# [2] = cited from earlier work
# 5HTP2A receptors = 5HTP2A receptors (Homo sapiens, UniProt P28223); conditions: cited from earlier work
# Chain of 5HTP2A receptors (P28223 whole entry): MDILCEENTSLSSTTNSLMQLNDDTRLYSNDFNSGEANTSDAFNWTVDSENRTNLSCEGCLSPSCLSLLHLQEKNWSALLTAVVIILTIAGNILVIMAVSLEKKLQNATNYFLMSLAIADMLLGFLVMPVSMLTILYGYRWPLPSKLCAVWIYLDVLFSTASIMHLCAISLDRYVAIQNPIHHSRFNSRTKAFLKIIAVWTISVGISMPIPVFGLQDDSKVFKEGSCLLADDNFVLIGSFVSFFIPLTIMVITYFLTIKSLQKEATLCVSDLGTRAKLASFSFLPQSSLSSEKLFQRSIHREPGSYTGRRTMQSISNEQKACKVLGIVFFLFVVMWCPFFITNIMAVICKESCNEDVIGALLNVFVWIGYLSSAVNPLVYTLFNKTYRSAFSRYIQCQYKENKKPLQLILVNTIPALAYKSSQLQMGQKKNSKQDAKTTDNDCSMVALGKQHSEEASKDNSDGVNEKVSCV
# D2 receptor = D2 receptor (Homo sapiens, UniProt P14416); conditions: cited from earlier work
# Chain of D2 receptor (P14416 whole entry): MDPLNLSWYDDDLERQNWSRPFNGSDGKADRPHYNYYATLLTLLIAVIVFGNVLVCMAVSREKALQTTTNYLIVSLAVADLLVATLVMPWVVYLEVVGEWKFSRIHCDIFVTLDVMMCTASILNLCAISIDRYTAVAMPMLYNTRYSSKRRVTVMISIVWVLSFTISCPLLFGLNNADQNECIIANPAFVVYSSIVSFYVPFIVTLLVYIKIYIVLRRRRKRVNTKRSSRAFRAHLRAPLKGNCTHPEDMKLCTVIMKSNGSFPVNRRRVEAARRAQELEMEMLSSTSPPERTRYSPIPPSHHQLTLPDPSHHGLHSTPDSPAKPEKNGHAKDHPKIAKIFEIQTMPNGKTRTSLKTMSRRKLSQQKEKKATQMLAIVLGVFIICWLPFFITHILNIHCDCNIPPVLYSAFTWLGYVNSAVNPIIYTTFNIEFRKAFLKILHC
# [3] = system: 50 other receptors, transporters and ion channels including mu- and delta-opioid receptors; conditions: cited from earlier work
structure (smiles),measurement,setting,value
CN(C)CCCC1(c2ccc(F)cc2)OCc2cc(C#N)ccc21 (centres unmarked) [celexa],mania on traditional antidepressants,[1],experienced mania
O=C1CN=C(c2ccccc2Cl)c2cc([N+](=O)[O-])ccc2N1 [clonazepam],effect on the anxiolytic and antidepressant effects of Salvia divinorum alone,"[1]; clonazepam oral and/or sublingual, about 1.5 mg b.i.d., along with cannabis and/or intranasal ketamine and inhaled Salvia divinorum",appeared to potentiate
same,"effect on anxiety, tremor or other side effects of Salvia divinorum administration","[1]; clonazepam oral and/or sublingual, along with cannabis and/or intranasal ketamine and inhaled Salvia divinorum","helped to further alleviate any anxiety, tremor or any other side effect"
CNC1(c2ccccc2Cl)CCCCC1=O (centres unmarked) [ketamine],effect on the anxiolytic and antidepressant effects of Salvia divinorum alone,"[1]; co-administered with inhaled Salvia divinorum, cannabis by combustion and inhalation and/or ketamine hydrochloride about 30 to about 75 mg intranasal",appeared to potentiate
COC(=O)[C@@H]1C[C@H](OC(C)=O)C(=O)[C@H]2[C@@]1(C)CC[C@H]1C(=O)O[C@H](c3ccoc3)C[C@]21C [salvinorin A],activity when administered orally,"[2]; encapsulated, oral",inactive
same,absorption on sublingual administration,[2]; sublingual,inconsistent results or no absorption at all
same,effect on 5HTP2A receptors,5HTP2A receptors,no significant effect
same,effect on 5HTP2A receptors,5HTP2A receptors; listed as Salvinorin A,no substantial effect
same,D2 receptor activity,D2 receptor,partial agonist
same,"effect on a battery of 50 other receptors, transporters and ion channels",[3],no significant effect
CN[C@H]1CC[C@@H](c2ccc(Cl)c(Cl)c2)c2ccccc21 [sertraline],mania on traditional antidepressants,[1],experienced mania
